Measured values: patent publication US9789117B2, “Use of sigma ligands in diabetes type-2 associated pain” (LABORATORIOS DEL DR. ESTEVE, S.A., priority 2011, dated 2017)
Entries after “also recorded” stand apart in the source; their conditions may differ. Structures can show the parent of a compound that is named as a salt.

How the values were obtained:
Assay type in all cases: in vivo, rat
[1] = tested on: male ZDF (Zucker Diabetic Fatty) rats; test: Spontaneous locomotor activity (photocell activity chambers)
Method: (§1) The example 1 was dissolved in physiological saline (0.9%) and pH was corrected to 5 with NaOH. The compound was administered by the intraperitoneal (i.p.) route. The doses of drug employed in the present study were 64 mg/kg i.p. for acute administration and 25 mg/kg i.p. twice a day (BID) for the chronic treatment during 14 days. The compound and the saline (vehicle) adjusted at pH 5, were administered in a volume of 0.5 ml.
All experimental protocols were performed in strict accordance with the EC regulation for care and use of experimental animals (86/609/EEC). Studies were performed with male ZDF (Zucker Diabetic Fatty) rats (ZDF/Gmi, fa/fa) obtained from Charles Rivers Genetic Models Inc. 6 week old rats were housed in groups of two in standard transparent cages, under a 12 light-dark cycle, and animals were maintained on Purina 5008 (16.7 kcal % fat) diet and sterile tap water, available ad libitum. Nonfasting blood glucose levels and body weight were regularly monitored. […]
it was evaluated using individual photocell activity chambers (Cibertec, Spain). Rats were placed in the recording chambers (55×40 cm, spacing between beams 3 cm) […] after drug administration, and the number of interruptions of photocell beams was recorded over a 30-min period.
Spontaneous locomotor activity is expressed as the percentage of the mean number of crossings of the photocell beams over 30 minutes. […]

[2] = tested on: male ZDF (Zucker Diabetic Fatty) rats; test: Von Frey test (mechanical allodynia, pressure threshold)
Method: as §1
(§2) All experimental protocols were performed in strict accordance with the EC regulation for care and use of experimental animals (86/609/EEC). Studies were performed with male ZDF (Zucker Diabetic Fatty) rats (ZDF/Gmi, fa/fa) obtained from Charles Rivers Genetic Models Inc. 6 week old rats were housed in groups of two in standard transparent cages, under a 12 light-dark cycle, and animals were maintained on Purina 5008 (16.7 kcal % fat) diet and sterile tap water, available ad libitum. Nonfasting blood glucose levels and body weight were regularly monitored.
(§3) Acute example 1: animals received one injection (0.5 ml) of example 1 (64 mg/kg i.p.) 30 minutes before behavioral testing (n=8).
(§4) Chronic example 1: animals received one injection (0.5 ml) of example 1 (25 mg/kg BID, for 14 days) (n=8). Behavioral tests were performed once a week during the treatment, and one week after the last administration they were sacrificed and electrophysiological and cardiovascular experiments were carried out.
Mechanical allodynia was assessed using an electronic Von Frey apparatus (EVF3, Bioseb, BP89, Chaville Cedez, France). Rats were placed individually on an elevated iron mesh floor, covered by a transparent plastic cage and were allowed to adapt to the testing environment for at least 15 minutes. The test was done by applying the von Frey filament through the mesh floor to the plantar surface of each hindpaw.
The test was performed three times with approximately 3 min interval between trials. The mean of the three trials was used for data analysis. […]
Von Frey test results are expressed as the percentage of the mean of mechanical threshold obtained from both hindpaws. […]

[3] = tested on: male ZDF (Zucker Diabetic Fatty) rats; test: Plantar test (thermal hyperalgesia, withdrawal latency); settings: for effect on thermal hyperalgesia (plantar test), acute treatment: single 64 mg/kg i.p., compared with week 7 baseline, 64 mg/kg
Method: as §1, §2, §3, §4
Thermal (heat) hyperalgesia (heat-nociception) was tested using a 37370 plantar test apparatus (Ugo Basile, Comerio VA, Italy). The withdrawal latency from a focused beam of radiant heat applied to the mid plantar surface of the hindpaws was recorded. The intensity of light was adjusted at the start of the experiment such that the control average baseline latencies were about 8 s and a cut-off latency of 30 s was imposed. The withdrawal latency of each paw was measured and the mean value was used for data analysis. The antihyperalgesic effect of the treatment was evidenced as an increase in the withdrawal latency respect to control baseline latencies.
Plantar test results are expressed as the percentage of the mean of thermal latency obtained from both hindpaws.
Data are expresses as mean+standard error mean (SEM). Statistical analysis of drug effects for significant differences between multiple groups were performed by analysis of variance (ANOVA), followed, when appropriate, by post-hoc Newman-Keuls test or Bonferroni Test. P<0.05 was considered as statistically significant.

[4] = tested on: Aδ-fibres of ZDF rats; test: Skin-nerve preparation and electrophysiological recordings (saphenous nerve Aδ-fibres, mechanical stimulation) after chronic treatment
Method: as §4
3.2 Skin—Nerve Preparation and Electrophysiological Recordings
In order to minimize pain or discomfort, animals were killed by cervical dislocation. The saphenous nerve and its innervating territory on the hairy hindpaw skin were subcutaneously dissected and excised. […] Neuronal activity was recorded using gold-wire electrodes. Small filaments of the nerve were repeatedly split with sharpened forceps until a single unit activity could be recorded from them. […] Spikes were later analyzed offline using the SPIDI software.
Units were first identified by manual probing of the skin with a blunt glass rod that exerts a pressure of more than 500 mN to search for their receptive field (RF). […] In order to characterize the units, we assessed their conduction velocity (CV) by electrically stimulating the RF with supramaximal square-wave pulses (pulse width, 0.5 ms; train frequency, 0.2 Hz; variable intensity) with a Teflon-coated steel microneurography electrode (shaft diameter 1 mm, bare tip diameter 5-10 μm impedance 1-5 MΩ); an indifferent electrode was placed nearby in the organ bath. […]

[5] = ZDF rats, 25 mg/kg i.p. BID for 14 days (week 13 to 15)
[6] = chronic treatment 25 mg/kg for 14 days, twice a day

Cc1cc(OCCN2CCOCC2)nn1-c1ccc2ccccc2c1 [Example 1, 4-{2-[5-methyl-1-(naphthalen-2-yl)-1H-pyrazol-3-yloxy]ethyl}morpholine hydrochloride]
spontaneous locomotor activity, chronic treatment ([1]; 25 mg/kg i.p. BID for 14 days, vs pretreatment values): no differences
spontaneous locomotor activity, acute treatment ([1]; single 64 mg/kg i.p.): not significantly different
effect on mechanical allodynia (Von Frey test), acute treatment ([2]; ZDF rats aged 13 weeks, single 64 mg/kg i.p., compared with week 7 baseline, listed as example 1, hydrochloride, 64 mg/kg): restored baseline values; also recorded: the mechanical allodynia was reversed; also recorded: reversed the changes in the thresholds
effect on mechanical allodynia (Von Frey test), chronic treatment [2, 5]: completely reversed
tolerance to the antiallodynic effect [2, 6]: No tolerance
increase of the latency to hindpaw withdrawal in response to thermal stimulation (plantar test) ([3]; ZDF rats aged 13 weeks, acute 64 mg/kg i.p., 30 minutes before test, mean±SEM, vehicle 12.6±6.9%): 25.5±9.1%
effect on thermal hyperalgesia (plantar test), acute treatment ([3]; ZDF rats aged 13 weeks, hydrochloride): reversed thermal hyperalgesia
effect on thermal hyperalgesia (plantar test), acute treatment ([3]; ZDF rats aged 13 weeks, listed as example 1, hydrochloride): restored baseline values; also recorded: reversed the changes in the thresholds
effect on thermal hyperalgesia (plantar test), chronic treatment [3, 5]: completely reversed
tolerance to the antihyperalgesic effect [3, 6]: No tolerance
threshold of response to the mechanical stimulation (electrophysiological recording) ([4]; 25 mg/kg i.p. BID for 14 days, vs vehicle-treated ZDF rats): reduced the threshold
hyperreactivity in response to mechanical stimulation in electrophysiological recordings (Aδ-fibres) ([4]; chronic treatment, conclusion): reduction of the hyperreactivity
